Reference: patent US8889874B2, “Imidazolone-chalcone derivatives as potential anticancer agent and process for the preparation thereof” (Council of Scientific and Industrial Research, priority 2010, dated 2014)
Like-named read-outs stand apart in the source and are kept apart here.

Assays:
Format in all cases: cell-based, human
[1] = tested on: A498 (renal); test: NCI anticancer screen, SRB assay, 48 h; details: Homo sapiens
Procedure, shortened: (§1)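 Sulforhodamine B protein assay read cell growth after 48 h of continuous compound exposure. Dose-response curves per cell line used at least five 10-fold-diluted concentrations, within a panel of fifty-three human lines from nine tumour types.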

[2] = tested on: HCC-2998 (colon); test: NCI anticancer screen, SRB assay, 48 h; details: Homo sapiens
Procedure, shortened: as §1

[3] = tested on: HCT-116 (colon); test: NCI anticancer screen, SRB assay, 48 h; details: Homo sapiens
Procedure, shortened: as §1

[4] = tested on: HCT-15 (colon); test: NCI anticancer screen, SRB assay, 48 h; details: Homo sapiens
Procedure, shortened: as §1

[5] = tested on: HOP-62 (non-small cell lung); test: NCI anticancer screen, SRB assay, 48 h; details: Homo sapiens
Procedure, shortened: as §1

[6] = tested on: K-562 (leukemia cell line); test: NCI anticancer screen, SRB assay, 48 h; details: Homo sapiens
Procedure, shortened: as §1

[7] = tested on: MDA-MB-231/ATCC (breast); test: NCI anticancer screen, SRB assay, 48 h; details: Homo sapiens
Procedure, shortened: as §1

[8] = tested on: MDA-MB-435 (melanoma); test: NCI anticancer screen, SRB assay, 48 h; details: Homo sapiens
Procedure, shortened: as §1

[9] = tested on: NCI-H23 (non-small cell lung); test: NCI anticancer screen, SRB assay, 48 h; details: Homo sapiens
Procedure, shortened: as §1

[10] = tested on: NCI-H460 (non-small cell lung); test: NCI anticancer screen, SRB assay, 48 h; details: Homo sapiens
Procedure, shortened: as §1

[11] = tested on: OVCAR-4 (ovarian); test: NCI anticancer screen, SRB assay, 48 h; details: Homo sapiens
Procedure, shortened: as §1

[12] = tested on: SK-MEL-28 (melanoma); test: NCI anticancer screen, SRB assay, 48 h; details: Homo sapiens
Procedure, shortened: as §1

[13] = tested on: SNB-75 (CNS); test: NCI anticancer screen, SRB assay, 48 h; details: Homo sapiens
Procedure, shortened: as §1

[14] = tested on: TD-47D (breast); test: NCI anticancer screen, SRB assay, 48 h; details: Homo sapiens
Procedure, shortened: as §1

[15] = tested on: UO-31 (renal); test: NCI anticancer screen, SRB assay, 48 h; details: Homo sapiens
Procedure, shortened: as §1

[16] = tested on: Breast cancer cell lines; test: NCI anticancer screen, SRB assay, panel summary; details: Homo sapiens
Procedure: (§2) Some of biological activity studies were carried out at the National Cancer Institute (NCI), Maryland, USA.
(§3) The compounds were evaluated for anticancer activity against fifty three human cancer cells derived from nine cancer types (leukemia cell line, non-small-cell lung cell line, colon cell line, CNS cell line, melanoma cell line, ovarian cell line, prostate cell line, and breast cancer cell line) as shown in Table 1. For each compound, dose response curves for each cell line were measured at a minimum of five concentrations at 10 fold dilutions. A protocol of 48 h continuous drug exposure was used and a sulforhodamine B (SRB) protein assay was used to estimate cell viability or growth.

[17] = tested on: CNS cancer cell lines; test: NCI anticancer screen, SRB assay, panel summary; details: for GI50: Homo sapiens
Procedure: as §2, §3

[18] = tested on: Colon cancer cell lines; test: NCI anticancer screen, SRB assay, panel summary; details: for GI50: Homo sapiens
Procedure: as §2, §3

[19] = tested on: Leukemia cancer cell lines; test: NCI anticancer screen, SRB assay, panel summary; details: Homo sapiens
Procedure: as §2, §3

[20] = tested on: Melanoma cancer cell lines; test: NCI anticancer screen, SRB assay, panel summary; details: for GI50: Homo sapiens
Procedure: as §2, §3

[21] = tested on: Non-small cell lung cancer cell lines; test: NCI anticancer screen, SRB assay, panel summary; details: Homo sapiens
Procedure: as §2, §3

[22] = tested on: Ovarian cancer cell lines; test: NCI anticancer screen, SRB assay, panel summary; details: Homo sapiens
Procedure: as §2, §3

[23] = tested on: Prostate cancer cell lines; test: NCI anticancer screen, SRB assay, panel summary
Procedure: as §2, §3

[24] = tested on: Renal cancer cell lines; test: NCI anticancer screen, SRB assay, panel summary; details: Homo sapiens
Procedure: as §2, §3

[25] = 48 h exposure, SRB, read-out: GI50
[26] = read-out: pGI50 (-log of molar concentration causing 50% inhibition of net cell growth) (converted)

**Q.** With `COc1cc(/C=C/C(=O)c2cccc(-n3cc(-c4cc(OC)c(OC)c(OC)c4)[nH]c3=O)c2)cc(OC)c1OC` [5d, 4-(3,4,5-trimethoxyphenyl)-1-3-[(E)-3-(3,4,5-trimethoxyphenyl)-2-propenoyl]phenyl-2,3-dihydro-1H-2-imidazolone] as the molecule, how does the GI50 [1, 25] read?
**A.** Its GI50 is 20.3 µM.

**Q.** What about the GI50 [1, 26] of the same molecule?
**A.** The GI50 was 20.4 µM.

**Q.** And the GI50 [2, 25]?
**A.** Its GI50 is 1920 nM.

**Q.** And the GI50 [2, 26]?
**A.** The GI50 was 1910 nM.

**Q.** What about the GI50 [3, 25] of the same molecule?
**A.** The GI50 was 740 nM.

**Q.** What about the GI50 [3, 26] of the same molecule?
**A.** Its GI50 is 741 nM.

**Q.** And the GI50 [4, 25]?
**A.** Its GI50 is 1890 nM.

**Q.** And the GI50 [4, 26]?
**A.** The GI50 was 1910 nM.

**Q.** And the GI50 [5, 25]?
**A.** The GI50 was 3.08 µM.

**Q.** And the GI50 [5, 26]?
**A.** The GI50 was 3.09 µM.

**Q.** What about the GI50 ([6]; K562, 48 h exposure, SRB, read-out: GI50) of the same molecule?
**A.** Its GI50 is 590 nM.

**Q.** What about the GI50 ([6]; K562, read-out: pGI50 (-log of molar concentration causing 50% inhibition of net cell growth) (converted)) of the same molecule?
**A.** Its GI50 is 589 nM.

**Q.** What about the GI50 [7, 25] of the same molecule?
**A.** The GI50 was 4.19 µM.

**Q.** And the GI50 [7, 26]?
**A.** The GI50 was 4.17 µM.

**Q.** What about the GI50 [8, 25] of the same molecule?
**A.** The GI50 was 2110 nM.

**Q.** What about the GI50 [8, 26] of the same molecule?
**A.** The GI50 was 2090 nM.

**Q.** And the GI50 [9, 25]?
**A.** The GI50 was 2000 nM.

**Q.** And the GI50 [9, 26]?
**A.** The GI50 was 2000 nM.

**Q.** What about the GI50 [10, 25] of the same molecule?
**A.** The GI50 was 1730 nM.

**Q.** What about the GI50 [10, 26] of the same molecule?
**A.** The GI50 was 1740 nM.

**Q.** And the GI50 [11, 25]?
**A.** The GI50 was 3.77 µM.

**Q.** And the GI50 [11, 26]?
**A.** Its GI50 is 3.8 µM.

**Q.** And the GI50 [12, 25]?
**A.** The GI50 was 1610 nM.

**Q.** And the GI50 [12, 26]?
**A.** Its GI50 is 1620 nM.

**Q.** And the GI50 [13, 25]?
**A.** The GI50 was 5.13 µM.

**Q.** And the GI50 [13, 26]?
**A.** The GI50 was 5.13 µM.

**Q.** And the GI50 [14, 25]?
**A.** Its GI50 is 3.08 µM.

**Q.** What about the GI50 [14, 26] of the same molecule?
**A.** The GI50 was 3.09 µM.

**Q.** And the GI50 [15, 25]?
**A.** Its GI50 is 960 nM.

**Q.** What about the GI50 [15, 26] of the same molecule?
**A.** The GI50 was 955 nM.

**Q.** And the GI50 ([16]; Breast panel, log of concentration in mol/L causing 50% inhibition of net cell growth, read-out: mean graph midpoint (MG_MID) of Log10 GI50 (converted))?
**A.** Its GI50 is 3.98 µM.

**Q.** What about the LC50 ([16]; Breast panel, log of concentration leading to 50% net cell death, read-out: mean graph midpoint (MG_MID) of Log10 LC50 (converted)) of the same molecule?
**A.** The LC50 was 45.7 µM.

**Q.** And the GI50 ([16]; five breast cancer cell lines, exposure at least 48 hrs, read-out: GI50, range over the panel)?
**A.** Its GI50 is 0.47 to 4.19 µM.

**Q.** What about the “mean graph midpoint (MG_MID) of Log10 LC50” value ([17]; CNS panel, log of concentration leading to 50% net cell death) of the same molecule?
**A.** Its value is 4.29.

**Q.** And the GI50 ([17]; CNS panel, log of concentration in mol/L causing 50% inhibition of net cell growth, read-out: mean graph midpoint (MG_MID) of Log10 GI50 (converted))?
**A.** The GI50 was 3.09 µM.

**Q.** What about the GI50 ([17]; six CNS cancer cell lines, exposure at least 48 hrs, read-out: GI50, range over the panel) of the same molecule?
**A.** Its GI50 is 1.23 to 4.96 µM.

**Q.** And the “mean graph midpoint (MG_MID) of Log10 LC50” value ([18]; Colon panel, log of concentration leading to 50% net cell death)?
**A.** Its value is 4.19.

**Q.** What about the GI50 ([18]; Colon panel, log of concentration in mol/L causing 50% inhibition of net cell growth, read-out: mean graph midpoint (MG_MID) of Log10 GI50 (converted)) of the same molecule?
**A.** Its GI50 is 1910 nM.

**Q.** And the GI50 ([18]; seven colon cancer cell lines, exposure at least 48 hrs, read-out: GI50, range over the panel)?
**A.** Its GI50 is 740 to 1920 nM.

**Q.** What about the GI50 ([19]; Leukemia panel, log of concentration in mol/L causing 50% inhibition of net cell growth, read-out: mean graph midpoint (MG_MID) of Log10 GI50 (converted)) of the same molecule?
**A.** Its GI50 is 380 nM.

**Q.** What about the LC50 ([19]; Leukemia panel, log of concentration leading to 50% net cell death, read-out: mean graph midpoint (MG_MID) of Log10 LC50 (converted)) of the same molecule?
**A.** Its LC50 is ≥ 100 µM.

**Q.** And the GI50 ([19]; two leukemia cancer cell lines (RPMI-8226 and K-562), exposure at least 48 hrs, read-out: GI50, range over the panel)?
**A.** The GI50 was 230 to 590 nM.

**Q.** And the GI50 ([20]; Melanoma panel, log of concentration in mol/L causing 50% inhibition of net cell growth, read-out: mean graph midpoint (MG_MID) of Log10 GI50 (converted))?
**A.** Its GI50 is 2040 nM.

**Q.** What about the GI50 ([20]; nine melanoma cancer cell lines, exposure at least 48 hrs, read-out: GI50, range over the panel) of the same molecule?
**A.** Its GI50 is 1230 to 3020 nM.

**Q.** And the “mean graph midpoint (MG_MID) of Log10 LC50” value ([20]; Melanoma panel, log of concentration leading to 50% net cell death)?
**A.** The value was 4.67.

**Q.** And the GI50 ([21]; Non-small cell lung panel, log of concentration in mol/L causing 50% inhibition of net cell growth, read-out: mean graph midpoint (MG_MID) of Log10 GI50 (converted))?
**A.** Its GI50 is 13.8 µM.

**Q.** And the GI50 ([21]; nine non-small cell lung cancer cell lines, exposure at least 48 hrs, read-out: GI50, range over the panel)?
**A.** The GI50 was 1.05 to 14.4 µM.

**Q.** What about the GI50 ([22]; Ovarian panel, log of concentration in mol/L causing 50% inhibition of net cell growth, read-out: mean graph midpoint (MG_MID) of Log10 GI50 (converted)) of the same molecule?
**A.** The GI50 was 2950 nM.

**Q.** And the LC50 ([22]; Ovarian panel, log of concentration leading to 50% net cell death, read-out: mean graph midpoint (MG_MID) of Log10 LC50 (converted))?
**A.** The LC50 was 75.9 µM.

**Q.** What about the GI50 ([22]; six ovarian cancer cell lines, exposure at least 48 hrs, read-out: GI50, range over the panel) of the same molecule?
**A.** The GI50 was 1480 to 5120 nM.

**Q.** And the GI50 ([23]; Homo sapiens, log of concentration in mol/L causing 50% inhibition of net cell growth, read-out: mean graph midpoint (MG_MID) of Log10 GI50 (converted))?
**A.** The GI50 was 2630 nM.

**Q.** And the LC50 ([23]; Homo sapiens, log of concentration leading to 50% net cell death, read-out: mean graph midpoint (MG_MID) of Log10 LC50 (converted))?
**A.** The LC50 was ≥ 100 µM.

**Q.** What about the “mean graph midpoint (MG_MID) of Log10 TGI” value ([23]; log of concentration resulting in total inhibition of net cell growth) of the same molecule?
**A.** Its value is 4.73.

**Q.** What about the GI50 ([24]; Renal panel, log of concentration in mol/L causing 50% inhibition of net cell growth, read-out: mean graph midpoint (MG_MID) of Log10 GI50 (converted)) of the same molecule?
**A.** Its GI50 is 2630 nM.

**Q.** And the LC50 ([24]; Renal panel, log of concentration leading to 50% net cell death, read-out: mean graph midpoint (MG_MID) of Log10 LC50 (converted))?
**A.** The LC50 was 27.5 µM.

**Q.** What about the GI50 ([24]; eight renal cancer cell lines, exposure at least 48 hrs, read-out: GI50, range over the panel) of the same molecule?
**A.** Its GI50 is 960 to 20300 nM.
